This note sets out measurements from US10005767B2, “Compositions and methods for inhibition of the JAK pathway” (Rigel Pharmaceuticals, Inc., priority 2009, dated 2018).

As usually defined, the IC50 is the concentration needed to halve the response being measured.

Counter-ions that a name gives are not always drawn. Bounds are passed on as bounds.

The test system of one assay is human primary T-cells, IL-2 stimulated proliferation (JAK-1 and JAK-3 dependent; reported as JAK3 activity). In words: Human primary T-cell proliferation stimulated by IL-2 (Example 3). In kind it is cell-based. Particulars: Homo sapiens, T-cell, tested under conditions described in Example 3 (IL-2 stimulated human primary T-cell proliferation); read-out: ability to inhibit JAK3 activity, IC50 range (Table V). In outline:
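Peripheral-blood human T-cells pre-activated via TCR/CD28, IL-2-starved overnight, then cultured 72 h at 37 °C with compound in Yssel's medium containing IL-2 (80 U/mL in cell suspension). Proliferation read as viable-cell ATP by CellTiter-Glo luminescence; reduction versus control taken as JAK pathway inhibition.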
For the compound `CCNC(=O)NC1CCN(c2ccc(Nc3ncc(C)c(Nc4ccc5oc(=O)[nH]c5c4)n3)cn2)C1` (stereo not drawn) [II-96, 1-ethyl-3-(1-(5-(5-methyl-4-(2-oxo-2,3-dihydrobenzo[d]oxazol-5-ylamino)pyrimidin-2-ylamino)pyridin-2-yl)pyrrolidin-3-yl)urea], the IC50 was less than 500 nM.
On to `Cc1cnc(Nc2ccc3c(c2)CN(C)C3)nc1Nc1ccc2oc(=O)[nH]c2c1` [III-4, N4-(benzo[d]oxazol-2(3H)-on-5-yl)-N2-(2-methylisoindolin-5-yl)-5-methylpyrimidine-2,4-diamine], for which the IC50 is less than 500 nM.
On the same count and under the same terms, the result for `Cc1cnc(Nc2ccc(N3CCOCC3)nc2)nc1Nc1cc(C)c2oc(=O)[nH]c2c1` [II-73, 7-methyl-5-(5-methyl-2-(6-morpholinopyridin-3-ylamino)pyrimidin-4-ylamino)benzo[d]oxazol-2(3H)-one] reads less than 500 nM.
Take `Cc1cnc(Nc2ccc(OC(C)C)nc2)nc1Nc1ccc2oc(=O)[nH]c2c1` [II-144, N2-(2-isopropoxypyridin-5-yl)-5-methyl-N4-(2-oxo-2,3-dihydro-1,3-benzoxazol-5-yl)-2,4-pyrimidinediamine]: the IC50 was less than 500 nM.
The same measure, in the same setting: the figure for `Cc1cc(Nc2ncc(C)c(Nc3ccc4oc(=O)[nH]c4c3)n2)c(C)cc1Cl` [Compound I-176, 5-[2-(4-Chloro-2,5-dimethyl-phenylamino)-5-methyl-pyrimidin-4-ylamino]-3H-benzooxazol-2-one] is 500 to 5000 nM.
`Cc1cnc(Nc2cnc3c(c2)c(C)nn3C)nc1Nc1ccc2oc(=O)[nH]c2c1` [IV-40, N2-(1,3-dimethyl-1H-pyrazolo[3,4-b]pyridin-5-yl)-5-methyl-N4-(2-oxo-2,3-dihydro-1,3-benzoxazol-5-yl)-2,4-pyrimidinediamine]: the IC50 is less than 500 nM.
Turning to `CCNC(C)c1cc(Nc2ncc(C)c(Nc3ccc4oc(=O)[nH]c4c3)n2)cc(C(F)(F)F)c1` (stereo not drawn) [Compound I-462, 5-(2-(3-(1-(ethylamino)ethyl)-5-(trifluoromethyl)phenylamino)-5-methylpyrimidin-4-ylamino)benzo[d]oxazol-2(3H)-one], the concentration for half-maximal inhibition (IC50) was less than 500 nM.
Same read-out and setting: the figure for `Cc1cnc(Nc2cc(Cl)cc(C(F)(F)F)c2)nc1Nc1ccc2oc(=O)[nH]c2c1` [Compound I-497, 5-[2-(3-Chloro-5-trifluoromethyl-phenylamino)-5-methyl-pyrimidin-4-ylamino]-3H-benzooxazol-2-one] is greater than 10000 nM.
Still for that read-out and setting: the result for `Cc1cnc(Nc2ccc(C(=O)N3CCN(CC(C)C)CC3)nc2)nc1Nc1ccc2oc(=O)[nH]c2c1` [II-47, 5-{2-[6-(4-Isobutyl-piperazine-1-carbonyl)-pyridin-3-ylamino]-5-methyl-pyrimidin-4-ylamino}-3H-benzooxazol-2-one] reads less than 500 nM; that for `CCOc1ccc(Nc2ncc(C)c(Nc3ccc4oc(=O)[nH]c4c3)n2)cc1Cl` [Compound I-194, 5-[2-(3-Chloro-4-ethoxy-phenylamino)-5-methyl-pyrimidin-4-ylamino]-3H-benzooxazol-2-one], less than 500 nM; that for `COc1cc(Nc2ncc(C)c(Nc3cc(C)c4oc(=O)[nH]c4c3)n2)cc(C)c1F` [Compound I-491, 5-(2-(4-fluoro-3-methoxy-5-methylphenylamino)-5-methylpyrimidin-4-ylamino)-7-methylbenzo[d]oxazol-2(3H)-one], less than 500 nM.
The same measure, in the same setting: the result for `NS(=O)(=O)c1ccc(Nc2ncc(F)c(Nc3ccc4[nH]c(=O)[nH]c4c3)n2)cc1` [Compound I-13, 5-(5-fluoro-2-(4-aminosulfonylphenylamino)pyrimidin-4-ylamino)-1H-benzo[d]imidazol-2(3H)-one] reads 500 to 5000 nM.
For the compound `Cc1cnc(Nc2ccc3cnoc3c2)nc1Nc1ccc2oc(=O)[nH]c2c1` [IV-5, N4-(benzo[d]oxazol-2(3H)-on-5-yl)-N2-(1,2-benzisoxazol-6-yl)-5-methylpyrimidine-2,4-diamine], the IC50 is less than 500 nM.
Still for that read-out and setting: the result for `Cc1cnc(Nc2ccc3c(c2)NC(=O)CO3)nc1Nc1ccc2oc(=O)[nH]c2c1` [IV-25, 6-(5-methyl-4-(2-oxo-2,3-dihydrobenzo[d]oxazol-5-ylamino)pyrimidin-2-ylamino)-2H-benzo[b][1,4]oxazin-3 (4H)-one] reads less than 500 nM.
On the same count and under the same terms, the result for `Cc1cnc(Nc2ccc3c(c2)C=CCNC3=O)nc1Nc1ccc2oc(=O)[nH]c2c1` [IV-18, (Z)-5-(5-methyl-2-(1-oxo-2,3-dihydro-1H-benzo[c]azepin-7-ylamino)pyrimidin-4-ylamino)benzo[d]oxazol-2(3H)-one] reads less than 500 nM; that for `COc1ccc(Nc2ncc(C)c(Nc3ccc4oc(=O)[nH]c4c3)n2)cc1-c1cccnc1` [Compound I-487, 5-(2-(4-methoxy-3-(pyridin-3-yl)phenylamino)-5-methylpyrimidin-4-ylamino)benzo[d]oxazol-2(3H)-one formate salt], less than 500 nM.
Same read-out and setting: the result for `COc1ccc(Nc2ncc(C)c(Nc3ccc4oc(=O)[nH]c4c3)n2)cc1COC(C)C` [Compound I-422, 5-(2-(3-(isopropoxymethyl)-4-methoxyphenylamino)-5-methylpyrimidin-4-ylamino)benzo[d]oxazol-2(3H)-one] reads less than 500 nM.
As to `Cc1cnc(Nc2cc(F)ccc2F)nc1Nc1ccc2oc(=O)[nH]c2c1` [Compound I-466, 5-[2-(2,5-Difluoro-phenylamino)-5-methyl-pyrimidin-4-ylamino]-3H-benzooxazol-2-one], the 50% inhibitory concentration (IC50) was less than 500 nM.
On the same count and under the same terms, the figure for `Cc1cnc(Nc2cccc(S(C)(=O)=O)c2)nc1Nc1cc(C)c2oc(=O)[nH]c2c1` [Compound I-244, 7-methyl-5-(5-methyl-2-(3-(methylsulfonyl)phenylamino)pyrimidin-4-ylamino)benzo[d]oxazol-2(3H)-one] is less than 500 nM; for `COc1cc(Nc2ncc(C)c(Nc3ccc4oc(=O)[nH]c4c3)n2)ccc1C(=O)N(C)C` [Compound I-267, 2-methoxy-N,N-dimethyl-4-(5-methyl-4-(2-oxo-2,3-dihydrobenzo[d]oxazol-5-ylamino)pyrimidin-2-ylamino)benzamide] it is less than 500 nM; for `Cc1cnc(Nc2cc(F)c(F)c(F)c2F)nc1Nc1ccc2oc(=O)[nH]c2c1` [Compound I-477, 5-[5-Methyl-2-(2,3,4,5-tetrafluoro-phenylamino)-pyrimidin-4-ylamino]-3H-benzooxazol-2-one] it is 500 to 5000 nM.
Same read-out and setting: the figure for `COCCOc1ccc(Nc2ncc(C)c(Nc3ccc4oc(=O)[nH]c4c3)n2)cc1C(F)(F)F` [Compound I-165, 5-{2-[4-(2-Methoxy-ethoxy)-3-trifluoromethyl-phenylamino]-5-methyl-pyrimidin-4-ylamino}-3H-benzooxazol-2-one] is less than 500 nM; for `CS(=O)(=O)Nc1ccc(Nc2ncc(F)c(Nc3ccc4[nH]c(=O)[nH]c4c3)n2)cc1` [Compound I-51, N2-(4-(methylsulfonylamino)phenyl)-N4-(1H-benzo[d]imidazol-2(3H)-on-5-yl)-5-fluoropyrimidine-2,4-diamine] it is 500 to 5000 nM; for `Cc1cnc(Nc2cnc(N3CC4CN(C(=O)C5CC5)CC4C3)c(F)c2)nc1Nc1ccc2oc(=O)[nH]c2c1` (stereo not drawn) [II-53, 5-{2-[6-(5-Cyclopropanecarbonyl-hexahydro-pyrrolo[3,4-c]pyrrol-2-yl)-5-fluoro-pyridin-3-ylamino]-5-methyl-pyrimidin-4-ylamino}-3H-benzooxazol-2-one] it is less than 500 nM.
For the compound `Cc1cccc(Nc2ncc(C)c(Nc3ccc4oc(=O)[nH]c4c3)n2)c1` [Compound I-403, 5-(5-Methyl-2-m-tolylamino-pyrimidin-4-ylamino)-3H-benzooxazol-2-one], the IC50 was less than 500 nM.
On the same count and under the same terms, the result for `Cc1cnc(Nc2cnc(N3CC4CC3CN4)c(F)c2)nc1Nc1ccc2oc(=O)[nH]c2c1` (stereo not drawn) [II-51, 5-{2-[6-(2,5-Diaza-bicyclo[2.2.1]hept-2-yl)-5-fluoro-pyridin-3-ylamino]-5-methyl-pyrimidin-4-ylamino}-3H-benzooxazol-2-one] reads less than 500 nM.
On the same count and under the same terms, the result for `CCN(CC)C1CCN(C(C)c2cccc(Nc3ncc(C)c(Nc4ccc5oc(=O)[nH]c5c4)n3)c2)C1` (stereo not drawn) [Compound I-214, 5-(2-(3-(1-(3-(diethylamino)pyrrolidin-1-yl)ethyl)phenylamino)-5-methylpyrimidin-4-ylamino)benzo[d]oxazol-2(3H)-one] reads less than 500 nM.

Staying with this assay, now noted: tested under conditions described in Example 3 (IL-2 stimulated human primary T-cell proliferation); read-out: ability to inhibit JAK3 activity, IC50 range (Table V).
`NS(=O)(=O)c1ccc(Nc2ncc(F)c(Nc3ccc4oc(=O)[nH]c4c3)n2)cc1` [Compound I-19]: the IC50 was less than 500 nM.
Still for that read-out and setting: the result for `Cc1cnc(Nc2cc(C)c(F)c(C)c2)nc1Nc1ccc2oc(=O)[nH]c2c1` [Compound I-374, N2-(3,5-dimethyl-4-fluoro)phenyl-5-methyl-N4-(2-oxo-2,3-dihydro-1,3-benzoxazol-5-yl)-2,4-pyrimidinediamine] reads less than 500 nM; that for `Cc1cnc(Nc2ccc(N3CCN(C)CC3)c(F)c2)nc1Nc1ccc2oc(=O)[nH]c2c1` [Compound I-281, N2-[3-fluoro-4-(4-methylpiperazino)]phenyl-5-methyl-N4-(2-oxo-2,3-dihydro-1,3-benzoxazol-5-yl)-2,4-pyrimidinediamine], less than 500 nM; that for `COC(c1cccc(Nc2ncc(C)c(Nc3ccc4oc(=O)[nH]c4c3)n2)c1)C(F)(F)F` (stereo not drawn) [Compound I-396, N2-[3-(1-methoxy-2,2,2-trifluoroethyl)]phenyl-5-methyl-N4-(2-oxo-2,3-dihydro-1,3-benzoxazol-5-yl)-2,4-pyrimidinediamine], less than 500 nM.
Same read-out and setting: the result for `COc1cc(Nc2ncc(C)c(Nc3ccc4oc(=O)[nH]c4c3)n2)ccc1C` [Compound I-351, N2-(3-methoxy-4-methyl)phenyl-5-methyl-N4-(2-oxo-2,3-dihydro-1,3-benzoxazol-5-yl)-2,4-pyrimidinediamine] reads less than 500 nM; that for `Cc1cnc(Nc2ccc(N3CCN(C)CC3)c(CO)c2)nc1Nc1ccc2oc(=O)[nH]c2c1` [Compound I-331, N2-[3-hydroxymethyl-4-(4-methylpiperazino)]phenyl-5-methyl-N4-(2-oxo-2,3-dihydro-1,3-benzoxazol-5-yl)-2,4-pyrimidinediamine], less than 500 nM.
